Tests used:
[1] = tested on: TGFβ signaling in NIH3T3-E1 cells; test: TGFβ target gene expression (Q-RT-PCR) in NIH3T3 cells; type: cell-based, mouse; conditions: NIH3T3 cells, TGFβ 20 ng/mL
Description: (§1) Total RNA was extracted with the RNeasy Plus Mini Kit from Qiagen (Hilden, Germany) according to the manufacturer’s instructions. One microgram of RNA was reverse-transcribed using an iScript Reverse Transcription Supermix from Bio-Rad Laboratories (Hercules, CA, USA) to make single-stranded cDNA. The cDNAs were then mixed with Qi SYBR Green Supermix (Bio-Rad) for quantitative RT-PCR assay using a Bio-Rad I-cycler IQ quantitative thermocycler. All PCR samples were prepared in triplicate wells in a 96-well plate. After 40 cycles of PCR, melt curves were examined in order to ensure primer specificity. Fold changes in gene expression were calculated using the ΔΔCt method. Primers used for mouse were as follows: Oaz1 (5′-CCACTGCTTCGCCAGAGAG-3′) and (5′-CCCGGACCCAGGTTACTA-3′), Gli1 (5′- […]-3′ and 5′- GCT GATCCAGCCTAAGGTTCTC-3′), Ptch1 (5′-CCATCGGCGACAAGAACC-3′ and 5′-[…]-3′), Thbs1 (5′-[…]-3′ and 5′-CGGGGATCAGGTTGGCATT-3′), Cryab (5′-[…]-3′ and 5′-[…]-3′), Egr2 (5′-[…]-3′ and 5′-[…]-3′), CTGF (5′-GGGCCTCTTCTGCGATTTC-3′ and 5′-[…]-3′).
Figure 4 Inhibition of ligand-induced Hedgehog and TGFβ signaling in mouse fibroblast cells. NIH3T3 cells were pretreated for 2 h with Oxy210 or various inhibitors as indicated in DMEM containing 5% FBS. Next, cells were treated with CAPAN-1 conditioned medium (CM) in the absence or presence of oxysterols or inhibitors. After 72 h, RNA was extracted and analyzed by Q-RT-PCR for the expression of Hh target genes Gli1 and Ptch1 and normalized to Oaz1 expression (a,b). (c,e) NIH3T3 cells were treated in DMEM containing 0.1% BCS overnight and then pretreated for 2 h with the inhibitors as indicated in DMEM containing 0.1%BCS. The cells were then treated with TGFβ (20ng/mL) in the absence or presence of the compounds. After 48 h, RNA was extracted and analyzed by Q-RT-PCR for the expression of TGFβ target genes as indicated and normalized to Oaz1 expression. (d) NIH3T3 cells cultured in 24 well-plates were transfected with a Smad response element reporter (SBE-Luciferase) plasmid and a pTK-Renilla-Luciferase plasmid. 6 hrs after transfection, cells were treated with the test agents as indicated for 48 hrs. Luciferase activity was measured and normalized to the Renilla luciferase activity. Data from a representative experiment are reported as the mean of triplicate determinations ± SD (** p < 0.01 vs. CM (a,b) or TGFβ (c,d and e) treated cells; ## p < 0.01 vs. control).

[2] = tested on: GLI1, GLI2, SHH mRNA in A549 NSCLC cells; test: GLI and SHH mRNA expression in A549 cells (Q-RT-PCR); type: cell-based, human
Description: as §1
Primers used for human were as follows: GAPDH (5′- […]-3′ and 5′- […]-3′), SHH (5′- CGGAGCGAGGAAGGGAAAG-3′) and (5′- […]-3′), GLI1 (5′- GAAGCCGAGCCGAGTATC-3′ and 5′-[…]-3′), GLI2 (5′-[…]-3′ and 5′-[…]-3′), Fn-EDA (5′- […]-3′ and 5′- […]-3′), E-Cadherin (5′- […]-3′ and 5′- TCCCAGGCGTAGACCAAGA-3′), SNAIL (5′- […]-3′ and 5′- […]-3′), N-Cadherin (5′- […]-3′ and 5′- […]-3′), Vimentin (5′- […]-3′ and 5′- […]-3′), ZO-1 (5′- […]-3′ and 5′- […]-3′), MMP2 (5′- […]-3′ and 5′- […]-3′), MMP9 (5′-[…]-3′ and 5′-[…]).
Figure 6 Inhibition of Glis and SHH expression in Non-Small Cell Lung Cancer (NSCLC) cells. A549 (a) and H2030 (b) cells were treated with Oxy210 in RPMI 1640 containing 5% FBS for 72 h, then RNA was extracted and analyzed by Q-RT-PCR for the expression of the indicated genes and normalized to GAPDH expression. (c) A549 cells were pretreated for 2 h with Oxy210 in RPMI 1640 containing 5% FBS. […] After 48 h, RNA was extracted and analyzed by Q-RT-PCR for the expression of Gli1 and Shh and normalized to GAPDH expression. […]

C[C@]12CC[C@H]3[C@@H](CC=C4C[C@@H](O)CC[C@@]43C)[C@@H]1CC[C@@H]2[C@](C)(O)CCc1cccnc1 [Oxy210, (3S,8S,9S,10R,13S,14S,17S)-17-((R)-2-hydroxy-4-(pyridin-3-yl)butan-2-yl)-10,13-dimethyl-2,3,4,7,8,9,10,11,12,13,14,15,16,17-tetradecahydro-1H-cyclopenta[a]phenanthren-3-ol]
expression of TGFβ target genes CTGF, Egr2, Thbs1 and Cryab ([1]; 48 h): strongly inhibited | expression of CTGF induced by TGFβ ([1]; 48 h (Figure 4e)): robustly inhibited | mRNA expression of GLI1 and GLI2 ([2]; 5 μM, 72 h): significantly inhibited | expression of SHH mRNA ([2]; 72 h): significantly inhibited | expression of GLI1 and SHH mRNA induced by TGFβ ([2]; TGFβ 10 ng/mL, 48 h): completely inhibited

From PMC6829886, “Inhibition of Non-Small Cell Lung Cancer Cells by Oxy210, an Oxysterol-Derivative that Antagonizes TGFβ and Hedgehog Signaling” (Cells, 2019)
